Experimental data published in ChEMBL document CHEMBL2203046, “Discovery of a novel non-steroidal GR antagonist with in vivo efficacy in the olanzapine-induced weight gain model in the rat” (Bioorg Med Chem Lett, 2012).

Assays:
[1] = molecular target: T1, Glucocorticoid receptor (Homo sapiens, UniProt P04150); assay: Antagonist activity at glucocorticoid receptor in human SW1353 cells assessed as inhibition of dexamethasone-induced luciferase expression after 16 hrs by MMTV5 reporter gene assay; type: functional, cell-based
T1 sequence (P04150 whole entry): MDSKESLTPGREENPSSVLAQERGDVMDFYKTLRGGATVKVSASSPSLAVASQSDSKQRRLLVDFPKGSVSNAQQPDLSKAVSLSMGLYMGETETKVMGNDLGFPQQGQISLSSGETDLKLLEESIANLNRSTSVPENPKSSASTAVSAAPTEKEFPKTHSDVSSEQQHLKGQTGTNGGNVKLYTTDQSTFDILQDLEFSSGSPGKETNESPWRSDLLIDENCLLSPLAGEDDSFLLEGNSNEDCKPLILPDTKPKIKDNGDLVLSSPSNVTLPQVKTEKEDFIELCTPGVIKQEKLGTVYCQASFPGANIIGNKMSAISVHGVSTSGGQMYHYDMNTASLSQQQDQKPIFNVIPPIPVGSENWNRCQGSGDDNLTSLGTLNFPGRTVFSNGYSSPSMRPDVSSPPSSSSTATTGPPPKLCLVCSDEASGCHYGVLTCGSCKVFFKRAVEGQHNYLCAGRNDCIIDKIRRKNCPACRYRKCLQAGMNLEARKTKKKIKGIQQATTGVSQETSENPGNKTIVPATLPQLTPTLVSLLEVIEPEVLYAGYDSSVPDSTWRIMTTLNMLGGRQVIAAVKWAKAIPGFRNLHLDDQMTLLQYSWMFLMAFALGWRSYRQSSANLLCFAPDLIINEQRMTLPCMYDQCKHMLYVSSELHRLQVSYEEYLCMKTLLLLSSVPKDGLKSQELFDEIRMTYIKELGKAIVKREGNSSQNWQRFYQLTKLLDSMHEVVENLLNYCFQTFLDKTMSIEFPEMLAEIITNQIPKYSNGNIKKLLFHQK

[2] = molecular target: T1, Glucocorticoid receptor; assay: Displacement of [3H]dexamethasone from human recombinant glucocorticoid receptor expressed in baculovirus after 18 hrs by scintillation counting analysis
[3] = test system: Rattus norvegicus; assay: Antagonist activity at glucocorticoid receptor in Sprague-Dawley rat assessed as change in olanzapine-induced weight gain at 10 mg/kg/day, po administered as divided doses twice daily for 21 days (Rvb =+ 36.5 +/- 10 g); type: functional
[4] = test system: Rattus norvegicus; assay: Antagonist activity at glucocorticoid receptor in Sprague-Dawley rat assessed as change in olanzapine-induced weight gain at 6 mg/kg/day, po administered as divided doses twice daily for 21 days (Rvb =+ 36.5 +/- 10 g); type: functional
[5] = test system: Rattus norvegicus; assay: Antagonist activity at glucocorticoid receptor in Sprague-Dawley rat assessed as change in olanzapine-induced weight gain at 2 mg/kg/day, po administered as divided doses twice daily for 21 days (Rvb =+ 36.5 +/- 10 g); type: functional
[6] = test system: Rattus norvegicus; assay: Antagonist activity at glucocorticoid receptor in Sprague-Dawley rat assessed as change in olanzapine-induced weight gain at 0.2 mg/kg/day, po administered as divided doses twice daily for 21 days (Rvb =+ 36.5 +/- 10 g); type: functional
[7] = test system: Rattus norvegicus; assay: Antagonist activity at glucocorticoid receptor in Sprague-Dawley rat assessed as change in olanzapine-induced weight gain at 0.6 mg/kg/day, po administered as divided doses twice daily for 21 days (Rvb =+ 36.5 +/- 10 g); type: functional
[8] = Plasma protein binding in rat; type: ADME, cell-free; settings: read-out: PPB
[9] = Plasma protein binding in human; type: ADME, cell-free; settings: read-out: PPB
[10] = Half life in rat at 1 mg/kg, iv; type: ADME, organism-based; parameters: dose 1 mg/kg, route intravenous; settings: in vivo
[11] = Oral bioavailability in rat at 5 mg/kg; type: ADME, organism-based; settings: in vivo
[12] = Clearance in rat at 1 mg/kg, iv; type: ADME, organism-based; parameters: dose 1 mg/kg, route intravenous; settings: in vivo
[13] = molecular target: Cytochrome P450 2C19 (Homo sapiens, UniProt P33261); assay: Inhibition of human CYP2C19; type: ADME
[14] = test system: Liver microsomes; assay: Metabolic stability in human liver microsomes; type: ADME, Microsome
[15] = test system: Liver microsomes; assay: Metabolic stability in rat liver microsomes; type: ADME, Microsome
[16] = molecular target: T2, Cytochrome P450 1A2 (Homo sapiens, UniProt P05177); assay: Inhibition of human CYP1A2; type: ADME
T2 sequence (P05177 whole entry): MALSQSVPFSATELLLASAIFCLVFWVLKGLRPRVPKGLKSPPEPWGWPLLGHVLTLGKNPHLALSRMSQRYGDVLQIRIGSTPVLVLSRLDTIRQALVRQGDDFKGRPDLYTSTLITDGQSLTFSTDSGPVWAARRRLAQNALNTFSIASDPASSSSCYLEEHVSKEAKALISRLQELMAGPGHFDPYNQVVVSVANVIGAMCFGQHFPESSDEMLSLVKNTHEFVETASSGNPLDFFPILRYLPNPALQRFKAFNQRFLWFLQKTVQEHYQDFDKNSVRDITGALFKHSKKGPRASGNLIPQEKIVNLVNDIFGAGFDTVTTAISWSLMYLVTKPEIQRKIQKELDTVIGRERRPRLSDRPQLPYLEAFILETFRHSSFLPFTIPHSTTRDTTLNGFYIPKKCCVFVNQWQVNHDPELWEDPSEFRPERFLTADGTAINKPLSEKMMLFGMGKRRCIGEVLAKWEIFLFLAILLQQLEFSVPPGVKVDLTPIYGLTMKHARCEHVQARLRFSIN

[17] = molecular target: Cytochrome P450 2C9 (Homo sapiens, UniProt P11712); assay: Inhibition of human CYP2C9; type: ADME
[18] = molecular target: Cytochrome P450 3A4 (Homo sapiens, UniProt P08684); assay: Inhibition of human CYP3A4; type: ADME
[19] = molecular target: Cytochrome P450 2D6 (Homo sapiens, UniProt P10635); assay: Inhibition of human CYP2D6; type: ADME
[20] = test system: Liver; assay: Metabolic stability in human liver microsomes

Cytochrome P450 3A4, sequence (P08684 whole entry): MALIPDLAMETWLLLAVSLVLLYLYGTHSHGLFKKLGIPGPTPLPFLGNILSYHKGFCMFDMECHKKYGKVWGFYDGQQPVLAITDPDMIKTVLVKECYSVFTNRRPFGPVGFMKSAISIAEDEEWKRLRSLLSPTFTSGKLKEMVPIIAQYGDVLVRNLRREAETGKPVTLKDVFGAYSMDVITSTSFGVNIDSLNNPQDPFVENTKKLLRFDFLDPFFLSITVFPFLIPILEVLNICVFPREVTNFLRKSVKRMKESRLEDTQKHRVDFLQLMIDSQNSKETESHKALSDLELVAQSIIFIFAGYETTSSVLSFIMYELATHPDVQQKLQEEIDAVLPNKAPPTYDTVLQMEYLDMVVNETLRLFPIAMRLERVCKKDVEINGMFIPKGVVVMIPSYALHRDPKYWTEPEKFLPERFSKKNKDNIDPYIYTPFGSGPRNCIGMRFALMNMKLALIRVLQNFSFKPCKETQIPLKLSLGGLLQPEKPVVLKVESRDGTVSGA
Cytochrome P450 2D6, sequence (P10635 whole entry): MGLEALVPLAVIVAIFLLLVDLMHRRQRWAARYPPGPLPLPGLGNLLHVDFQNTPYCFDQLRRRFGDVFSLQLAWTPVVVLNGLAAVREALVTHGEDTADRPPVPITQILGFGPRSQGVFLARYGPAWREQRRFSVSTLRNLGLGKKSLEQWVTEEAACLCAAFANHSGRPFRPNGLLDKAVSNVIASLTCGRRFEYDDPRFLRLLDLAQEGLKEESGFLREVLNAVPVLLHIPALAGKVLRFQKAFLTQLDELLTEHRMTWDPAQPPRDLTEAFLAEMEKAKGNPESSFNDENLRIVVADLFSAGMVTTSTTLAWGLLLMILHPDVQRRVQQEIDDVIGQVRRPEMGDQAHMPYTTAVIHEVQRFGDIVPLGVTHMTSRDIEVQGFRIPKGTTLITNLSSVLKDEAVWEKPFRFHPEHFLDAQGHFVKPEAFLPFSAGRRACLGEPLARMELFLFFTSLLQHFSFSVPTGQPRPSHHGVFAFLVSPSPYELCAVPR
Cytochrome P450 2C19, sequence (P33261 whole entry): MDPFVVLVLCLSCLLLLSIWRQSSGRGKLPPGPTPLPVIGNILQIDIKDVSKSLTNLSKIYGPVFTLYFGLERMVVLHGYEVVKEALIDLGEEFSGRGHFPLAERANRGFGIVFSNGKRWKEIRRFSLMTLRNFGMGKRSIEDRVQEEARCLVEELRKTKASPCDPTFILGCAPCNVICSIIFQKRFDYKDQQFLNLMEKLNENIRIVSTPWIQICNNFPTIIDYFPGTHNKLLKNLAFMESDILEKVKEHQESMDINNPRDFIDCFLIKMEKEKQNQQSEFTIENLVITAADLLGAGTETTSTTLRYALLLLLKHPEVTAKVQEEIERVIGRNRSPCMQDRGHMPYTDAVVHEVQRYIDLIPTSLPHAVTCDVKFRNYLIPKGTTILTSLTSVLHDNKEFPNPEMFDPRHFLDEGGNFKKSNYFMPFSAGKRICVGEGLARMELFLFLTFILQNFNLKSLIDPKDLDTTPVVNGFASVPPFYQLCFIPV
Cytochrome P450 2C9, sequence (P11712 whole entry): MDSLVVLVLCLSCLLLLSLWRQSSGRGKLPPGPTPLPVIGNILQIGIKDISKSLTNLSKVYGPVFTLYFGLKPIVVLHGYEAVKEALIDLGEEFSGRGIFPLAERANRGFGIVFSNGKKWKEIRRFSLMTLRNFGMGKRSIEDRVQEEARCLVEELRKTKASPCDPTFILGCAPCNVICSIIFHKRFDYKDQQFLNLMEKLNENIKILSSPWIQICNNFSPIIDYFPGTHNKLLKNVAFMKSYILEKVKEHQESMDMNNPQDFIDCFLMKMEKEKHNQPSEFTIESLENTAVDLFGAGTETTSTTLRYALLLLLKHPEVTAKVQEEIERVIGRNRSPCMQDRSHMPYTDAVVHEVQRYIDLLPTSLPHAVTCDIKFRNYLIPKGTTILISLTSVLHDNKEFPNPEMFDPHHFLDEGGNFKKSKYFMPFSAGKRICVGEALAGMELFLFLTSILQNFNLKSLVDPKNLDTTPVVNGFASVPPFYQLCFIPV

O=c1[nH]c(=O)c(Cc2ccccn2)c([C@H]2CC[C@@H](c3ccccc3)CC2)[nH]1
Ki [1]: 337 nM | Ki [2]: 188 nM

O=c1[nH]c(=O)c(Cc2ncccc2Cl)c([C@H]2CC[C@@H](c3ccccc3)CC2)[nH]1
Ki [1]: 116 nM | Ki [2]: 49 nM

O=c1[nH]c(=O)c(Cc2cccc(C(F)(F)F)c2)c([C@H]2CC[C@@H](c3ccccc3)CC2)[nH]1
Activity [3]: -23.7 g | Activity [4]: -23.6 g | Activity [5]: -10.2 g | Activity [6]: 25.6 g | Activity [7]: 9.8 g | fraction unbound [8]: < 0.001 | fraction unbound [9]: < 0.001 | half-life [10]: 1.8 h | bioavailability [11]: 20% | clearance [12]: 22 mL/min/kg | inhibition (INH) [13]: Not Active | Stability [14]: Stable | Stability [15]: Stable | inhibition (INH) [16]: Not Active | inhibition (INH) [17]: Not Active | inhibition (INH) [18]: Not Active | inhibition (INH) [19]: Not Active | Ki [1]: 24 nM | Ki [2]: 8 nM

O=c1[nH]c(=O)c(Cc2ccccc2)c([C@H]2CC[C@@H](c3ccccc3)CC2)[nH]1
Ki [2]: 32 nM

CCc1ccccc1Cc1c(=O)[nH]c(=O)[nH]c1[C@H]1CC[C@@H](c2ccccc2)CC1
Ki [1]: 78 nM | Ki [2]: 19 nM

Cc1csc(Cc2c(=O)[nH]c(=O)[nH]c2[C@H]2CC[C@@H](c3ccccc3)CC2)n1
Ki [1]: 119 nM | Ki [2]: 28 nM

CS(=O)(=O)c1ccccc1Cc1c(=O)[nH]c(=O)[nH]c1[C@H]1CC[C@@H](c2ccccc2)CC1
Ki [2]: 557 nM

Cn1nccc1Cc1c(=O)[nH]c(=O)[nH]c1[C@H]1CC[C@@H](c2ccccc2)CC1
Ki [1]: > 3000 nM | Ki [2]: > 1500 nM

O=c1[nH]c(=O)c(Cc2cc(Cl)ccc2Cl)c([C@H]2CC[C@@H](c3ccccc3)CC2)[nH]1
Ki [1]: 23 nM | Ki [2]: 8 nM

O=c1[nH]c(=O)c(Cc2c(Cl)cccc2Cl)c([C@H]2CC[C@@H](c3ccccc3)CC2)[nH]1
Ki [1]: 67 nM | Ki [2]: 11 nM

COc1ccccc1Cc1c(=O)[nH]c(=O)[nH]c1[C@H]1CC[C@@H](c2ccccc2)CC1
Ki [1]: 56 nM | Ki [2]: 9 nM

O=c1[nH]c(=O)c(Cc2nccs2)c([C@H]2CC[C@@H](c3ccccc3)CC2)[nH]1
Ki [1]: > 300 nM | Ki [2]: 139 nM

Cc1cccc(Cc2c(=O)[nH]c(=O)[nH]c2[C@H]2CC[C@@H](c3ccccc3)CC2)n1
Ki [1]: 57 nM | Ki [2]: 22 nM

Cc1cccc(Cc2c(=O)[nH]c(=O)[nH]c2[C@H]2CC[C@@H](c3ccccc3)CC2)c1
Ki [1]: 21 nM | Ki [2]: 3 nM

O=c1[nH]c(=O)c(Cc2cccc(C(F)(F)F)n2)c([C@H]2CC[C@@H](c3ccccc3)CC2)[nH]1
Ki [1]: 47 nM | Ki [2]: 18 nM

O=c1[nH]c(=O)c(Cc2cccc(Cl)c2Cl)c([C@H]2CC[C@@H](c3ccccc3)CC2)[nH]1
Ki [1]: 25 nM | Ki [2]: 5 nM

Cc1cccc(Cc2c(=O)n(C)c(=O)[nH]c2[C@H]2CC[C@@H](c3ccccc3)CC2)c1
Ki [1]: 39 nM | Ki [2]: 19 nM

O=c1[nH]c(=O)c(Cc2ccccc2)c([C@H]2CC[C@H](c3ccccc3)CC2)[nH]1
Ki [1]: 44 nM | Ki [2]: 4 nM

Cc1cccc(Cc2c(=O)n(CCN(C)C)c(=O)[nH]c2[C@H]2CC[C@@H](c3ccccc3)CC2)c1
Ki [1]: > 300 nM | Ki [2]: 9 nM

O=c1[nH]c(N2CCC(c3ccccc3)CC2)c(Cc2ccccc2)c(=O)[nH]1
inhibition (INH) [13]: Not Active | inhibition (INH) [16]: Not Active | inhibition (INH) [17]: Not Active | inhibition (INH) [18]: Not Active | inhibition (INH) [19]: Not Active | Ki [2]: 8 nM | Stability [20]: Stable

Cn1c(=O)[nH]c([C@H]2CC[C@@H](c3ccccc3)CC2)c(Cc2cccc(C(F)(F)F)c2)c1=O
Ki [1]: 162 nM | Ki [2]: 16 nM

Cn1c(=O)[nH]c([C@H]2CC[C@@H](c3ccccc3)CC2)c(Cc2ccccc2)c1=O
Ki [1]: 57 nM | Ki [2]: 24 nM

O=c1[nH]c(=O)c(Cc2ccc(Cl)cc2Cl)c([C@H]2CC[C@@H](c3ccccc3)CC2)[nH]1
Ki [1]: 44 nM | Ki [2]: 11 nM

O=c1[nH]c(=O)c(Cc2ccccc2Cl)c([C@H]2CC[C@@H](c3ccccc3)CC2)[nH]1
Ki [1]: 37 nM | Ki [2]: 7 nM

O=c1[nH]c([C@H]2CC[C@@H](c3ccccc3)CC2)c(Cc2cccc(C(F)(F)F)c2)c(=O)n1CCO
Ki [1]: > 3000 nM | Ki [2]: 98 nM

COCCn1c(=O)[nH]c([C@H]2CC[C@@H](c3ccccc3)CC2)c(Cc2cccc(C(F)(F)F)c2)c1=O
Ki [2]: > 50 nM

Cc1cc(Cc2c(=O)[nH]c(=O)[nH]c2[C@H]2CC[C@@H](c3ccccc3)CC2)ccn1
Ki [1]: > 3000 nM | Ki [2]: > 50 nM

Cc1ccnc(Cc2c(=O)[nH]c(=O)[nH]c2[C@H]2CC[C@@H](c3ccccc3)CC2)c1
Ki [1]: 44 nM | Ki [2]: 21 nM

O=c1[nH]c(=O)c(Cc2ncccn2)c([C@H]2CC[C@@H](c3ccccc3)CC2)[nH]1
Ki [1]: > 3000 nM | Ki [2]: 400 nM
